Assay results: patent US8546421B1, “Oncogenic-RAS-signal dependent lethal compounds” (The Trustees of Columbia University in the City of New York, priority 2007, dated 2013)
≈ marks a conversion by molar mass, not a printed value.

Legend:
[1] = tested on: HL-60(TB); assay: cells; details: Homo sapiens
[2] = tested on: MOLT-4; assay: NCI60 anti-cancer screening
[3] = tested on: K-562; assay: NCI60 anti-cancer screening
[4] = tested on: NCI/ADR-RES; assay: NCI60 anti-cancer screening
[5] = tested on: BJ-TERT/LT/ST/RAS^V12 cells; assay: Alamar blue growth inhibition in dilution series; type: cell-based, human; details: Homo sapiens, alamar blue
[6] = tested on: HOP-92; assay: NCI60 anti-cancer screening
[7] = tested on: A498; assay: NCI60 anti-cancer screening
[8] = tested on: HL-60(TB); details: Leukemia
[9] = tested on: BJ cell system (BJ-TERT, BJ-TERT/LT/ST, BJ-TERT/LT/ST/RAS^V12, DRD cells); assay: Alamar blue potency and selectivity in the engineered BJ cell system; details: oncogenic-RAS-expressing vs non-oncogenic-RAS-expressing BJ cells; alamar blue
Experimental: Empty “step-daughter plates” were filled with 50 μL DMEM, except for columns 3 and 13, where 100 μL of hit compound solution were cherry-picked from daughter plates. After compound transfer, 2-fold dilution series across columns 3 through 12 and columns 13 through 22 was made by transferring 50 μL of compound solution to the next column successively (10-point dilution series), with extensive mixing. Hit-picking and 2-fold dilution series were carried out using Biomek FX Span-8 module (Beckman Coulter). Assay plates were prepared by seeding 1,000 BJ-TERT, BJ-TERT/LT/ST, and BJ-TERT/LT/ST/RAS^V12 cells per well in 36 μL growth medium. Cells in assay plates were treated with compounds from step-daughter plates by transferring 4 μL. The final concentration of the compound was 5.33 μg/mL to 0.01 μg/mL in this 10-point, 2-fold dilution series. Assay plates were returned to the culture incubator and maintained for 48 hours before adding alamar blue.
Fresh daughter plates were made from the mother plate and cherry-picked hits from the first round, 2-fold dilution series experiment as described above. Assay plates were prepared by seeding 1,000 BJ-TERT, BJ-TERT/LT/ST, BJ-TERT/LT/ST/RAS^V12 or BJ-TERT/p53DD/CDK4/cyclinD1/ST/RAS^V12 (DRD) cells per well in 32 μL growth media. Cells in the assay plates were treated with compounds from the step-daughter plate by transferring 8 μL solution. The final concentration of the compound was 10.66 μg/mL to 0.02 μg/mL in a 10-point, 2-fold dilution series manner. Assay plates were returned to the culture incubator and maintained for 48 hours before adding alamar blue.
Cells were seeded in 384-well assay plates, treated with candidate compounds, and incubated in the culture incubator in 40 μL culture volume per well. […] Plates were incubated further for 16 hours to allow reduction of alamar blue, which results in the generation of red fluorescence. The fluorescence intensity was determined using a Victor 3 plate reader (Perkin Elmer) with a 535 nm excitation filter and a 590 nm emission filter.
In the subsequent two-fold dilution series testing, selectivity was calculated as the ratio of GI50 values in BJ-TERT/LT/ST and BJ-TERT/LT/ST/RAS^V12 cells. […] DRD cells are also derived from BJ primary cells and the effects of mutations in both lines should be similar.

[10] = tested on: BJ-TERT/LT/ST/RAS^V12 cells; assay: Counter screening with iron chelators; type: cell-based, human; details: DFOM and three additional iron-binding compounds; 24 hours
Experimental: Cells were treated with iron chelators by transferring 4 μL of 1 mM deferoxamine mesylate (Calbiochem, cat.#252750), 500 μM compound 1a (Chembridge, cat.#5175092), 1 mM compound 2 (Ryan Scientific, cat.#LT01784723), or 100 μM compound 311 (Chembridge, cat.#5135701) in growth media to the assay plate. Then, 4 μL was transferred from the ‘10× lethal plate’ (described in ‘counter screening with biologically active compounds’) to the assay plate in order to induce cell death. Assay plates were incubated for 24 hours and alamar blue was added to the plates at a final concentration of 10%.

COCCOC(=O)C1=C(C)NC2=C(C(=O)CC(c3ccc(Cl)cc3)C2)C1c1ccccc1F (stereo not drawn) [Compound 3]
GI50 ([1]; HL-60): 9.8 µM | CC50 ([1]; HL-60, read-out: LC 50%): > 10 µM | GI50 ([2]; Homo sapiens, MOLT-4): 8.39 µM | CC50 ([2]; Homo sapiens, MOLT-4, read-out: LC 50%): > 10 µM | GI 100% ([2]; MOLT-4, Leukemia): >10 µM | GI50 ([3]; Homo sapiens, K562): 9.16 µM | CC50 ([3]; Homo sapiens, K562, read-out: LC 50%): > 10 µM | GI 100% ([3]; K-562, Leukemia): >10 µM | GI 100% ([4]; Breast Cancer): >10 µM | GI50 ([4]; Homo sapiens): 8.93 µM | CC50 ([4]; Homo sapiens, read-out: LC 50%): > 10 µM | IC90 [5]: 10 µg/mL (≈ 21.3 µM) | GI 100% ([6]; HOP-92, Non-small cell lung carcinoma): >10 µM | GI50 ([6]; Homo sapiens, HOP-92): 6.18 µM | CC50 ([6]; Homo sapiens, HOP-92, read-out: LC 50%): > 10 µM | GI 100% ([7]; A498, Renal Cancer): >10 µM | GI50 ([7]; Homo sapiens, A498): 3.39 µM | CC50 ([7]; Homo sapiens, A498, read-out: LC 50%): > 10 µM | GI 100% [8]: >10 µM | degree of selectivity against HRAS^G12V [9]: 4-8 fold | effect of iron chelators on compound activity / induced cell death [10]: significantly inhibited
